Test results taken from PMC4979471 (Cell Death Discovery, 2015).
Read-outs that look alike come from different tables or passages of the source.

Tests used:
Experiment in all cases: Kinase selectivity, P33-radiolabeled assay
Format in all cases: biochemical
Conditions in all cases: 10 μM ATP
BRAF = biological target: T1, BRAF (Homo sapiens, UniProt P15056)
T1 construct: purchased Reaction Biology Corp
Procedure, shortened: (§1)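 Each enzyme was exposed to 10 μM compound, with duplicate measurements, in reactions containing 10 μM ATP. Numbers are remaining activity as a percent of the vehicle (DMSO) signal.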

PLK1 = biological target: T2, PLK1 (Homo sapiens, UniProt P53350)
T2 construct: purchased Reaction Biology Corp
Procedure, shortened: as §1

MST4 = biological target: T3, MST4 (Homo sapiens, UniProt Q9P289)
T3 construct: purchased Reaction Biology Corp
Procedure, shortened: as §1

CAMK1a = biological target: T4, CAMK1a (Homo sapiens, UniProt Q14012)
T4 construct: purchased Reaction Biology Corp
Procedure, shortened: as §1

MEK3 = biological target: T5, MEK3 (Homo sapiens, UniProt P46734)
T5 construct: purchased Reaction Biology Corp
T5 sequence (P46734 1-347): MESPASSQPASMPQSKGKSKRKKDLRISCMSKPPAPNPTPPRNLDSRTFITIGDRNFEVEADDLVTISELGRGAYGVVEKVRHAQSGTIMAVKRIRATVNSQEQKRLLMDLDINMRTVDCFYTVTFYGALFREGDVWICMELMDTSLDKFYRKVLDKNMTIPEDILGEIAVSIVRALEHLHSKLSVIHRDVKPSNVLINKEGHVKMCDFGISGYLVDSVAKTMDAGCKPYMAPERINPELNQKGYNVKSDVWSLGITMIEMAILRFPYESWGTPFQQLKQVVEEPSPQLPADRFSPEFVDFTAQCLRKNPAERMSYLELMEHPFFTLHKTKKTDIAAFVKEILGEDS
Procedure, shortened: as §1

CDK1/cyclin B = biological target: T6, CDK1/cyclin B (Homo sapiens, UniProt P06493)
T6 construct: purchased Reaction Biology Corp
Procedure, shortened: as §1

CK1a1 = biological target: T7, CK1a1 (Homo sapiens, UniProt P48729)
T7 construct: purchased Reaction Biology Corp
Procedure, shortened: as §1

EPHB4 = biological target: T8, EPHB4 (Homo sapiens, UniProt P54760)
T8 construct: purchased Reaction Biology Corp
T8 sequence (P54760 16-987): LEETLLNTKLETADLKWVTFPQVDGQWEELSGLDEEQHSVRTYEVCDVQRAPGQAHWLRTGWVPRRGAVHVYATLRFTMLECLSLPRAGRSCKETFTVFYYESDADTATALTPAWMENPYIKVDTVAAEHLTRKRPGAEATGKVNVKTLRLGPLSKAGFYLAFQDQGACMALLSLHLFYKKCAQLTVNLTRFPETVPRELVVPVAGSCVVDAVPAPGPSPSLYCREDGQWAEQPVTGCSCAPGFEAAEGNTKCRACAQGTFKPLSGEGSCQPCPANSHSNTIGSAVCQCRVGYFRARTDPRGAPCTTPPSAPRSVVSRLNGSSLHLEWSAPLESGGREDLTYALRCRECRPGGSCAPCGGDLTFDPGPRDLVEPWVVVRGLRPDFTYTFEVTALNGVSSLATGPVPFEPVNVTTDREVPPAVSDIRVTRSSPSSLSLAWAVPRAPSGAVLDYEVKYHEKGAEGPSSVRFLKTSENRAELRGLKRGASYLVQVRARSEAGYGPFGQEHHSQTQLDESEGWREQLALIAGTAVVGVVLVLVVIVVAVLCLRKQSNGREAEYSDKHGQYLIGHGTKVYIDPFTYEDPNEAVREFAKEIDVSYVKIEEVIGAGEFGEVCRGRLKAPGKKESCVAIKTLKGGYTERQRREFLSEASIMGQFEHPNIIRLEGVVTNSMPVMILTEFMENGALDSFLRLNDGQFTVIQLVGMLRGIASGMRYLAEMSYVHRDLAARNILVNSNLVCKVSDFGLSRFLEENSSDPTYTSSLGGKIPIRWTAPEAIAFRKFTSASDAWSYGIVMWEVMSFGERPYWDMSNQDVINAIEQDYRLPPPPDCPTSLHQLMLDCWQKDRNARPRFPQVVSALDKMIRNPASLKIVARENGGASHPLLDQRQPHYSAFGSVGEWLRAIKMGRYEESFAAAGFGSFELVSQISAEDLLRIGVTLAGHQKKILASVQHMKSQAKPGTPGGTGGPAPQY
Procedure, shortened: as §1

CAMK2b = biological target: T9, CAMK2b (Homo sapiens, UniProt Q13554)
T9 construct: purchased Reaction Biology Corp
Procedure, shortened: as §1

ARAF = biological target: T10, ARAF (Homo sapiens, UniProt P10398)
T10 construct: purchased Reaction Biology Corp
T10 sequence (P10398 1-606): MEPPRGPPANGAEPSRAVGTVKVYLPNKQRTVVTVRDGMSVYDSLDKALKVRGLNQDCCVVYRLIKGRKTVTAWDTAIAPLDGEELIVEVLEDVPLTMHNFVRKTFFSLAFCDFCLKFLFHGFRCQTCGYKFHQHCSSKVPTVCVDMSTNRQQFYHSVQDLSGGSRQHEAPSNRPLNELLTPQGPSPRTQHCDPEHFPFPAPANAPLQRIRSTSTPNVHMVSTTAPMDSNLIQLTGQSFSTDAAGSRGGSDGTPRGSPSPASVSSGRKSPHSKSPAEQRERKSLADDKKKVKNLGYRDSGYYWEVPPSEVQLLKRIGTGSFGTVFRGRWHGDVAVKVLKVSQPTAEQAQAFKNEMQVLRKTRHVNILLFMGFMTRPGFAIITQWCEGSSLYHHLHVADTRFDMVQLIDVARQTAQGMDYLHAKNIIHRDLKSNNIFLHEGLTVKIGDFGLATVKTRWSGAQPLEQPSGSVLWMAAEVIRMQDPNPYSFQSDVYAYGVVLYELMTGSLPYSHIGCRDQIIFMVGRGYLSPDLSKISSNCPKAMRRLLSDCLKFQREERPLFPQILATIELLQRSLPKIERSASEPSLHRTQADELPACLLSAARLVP
Procedure, shortened: as §1

[1] = read-out: % Enzyme Activity (relative to DMSO controls) AVG
[2] = read-out: % Enzyme Activity (relative to DMSO controls) Data 1
[3] = read-out: % Enzyme Activity (relative to DMSO controls) Data 2

T2 sequence (P53350 whole entry): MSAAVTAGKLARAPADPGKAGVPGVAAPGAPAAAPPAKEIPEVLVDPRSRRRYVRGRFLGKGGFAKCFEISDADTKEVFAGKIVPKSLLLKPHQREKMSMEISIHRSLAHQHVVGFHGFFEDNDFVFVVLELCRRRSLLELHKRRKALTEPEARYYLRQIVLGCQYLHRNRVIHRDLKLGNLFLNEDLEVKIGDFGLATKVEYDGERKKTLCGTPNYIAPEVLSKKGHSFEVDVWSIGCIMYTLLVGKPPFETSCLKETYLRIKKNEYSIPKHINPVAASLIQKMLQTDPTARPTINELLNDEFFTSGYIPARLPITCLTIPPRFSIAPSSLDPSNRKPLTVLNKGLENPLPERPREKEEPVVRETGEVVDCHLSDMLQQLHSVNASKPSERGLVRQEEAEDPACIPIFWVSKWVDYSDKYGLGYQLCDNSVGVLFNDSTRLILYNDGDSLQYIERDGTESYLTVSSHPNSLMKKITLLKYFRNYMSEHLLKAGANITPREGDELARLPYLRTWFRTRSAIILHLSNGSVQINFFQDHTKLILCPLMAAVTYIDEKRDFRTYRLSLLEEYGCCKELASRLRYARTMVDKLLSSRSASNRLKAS
T6 sequence (P06493 whole entry): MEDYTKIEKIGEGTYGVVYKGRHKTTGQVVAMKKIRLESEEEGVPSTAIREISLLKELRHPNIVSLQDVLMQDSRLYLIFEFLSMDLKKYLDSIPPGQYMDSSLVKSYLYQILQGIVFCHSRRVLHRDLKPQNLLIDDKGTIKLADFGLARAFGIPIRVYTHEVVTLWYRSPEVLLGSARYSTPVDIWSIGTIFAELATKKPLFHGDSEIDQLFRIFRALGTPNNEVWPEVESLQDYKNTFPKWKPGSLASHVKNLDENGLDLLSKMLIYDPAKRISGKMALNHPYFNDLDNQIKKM
T6 sequence (P14635 whole entry partner): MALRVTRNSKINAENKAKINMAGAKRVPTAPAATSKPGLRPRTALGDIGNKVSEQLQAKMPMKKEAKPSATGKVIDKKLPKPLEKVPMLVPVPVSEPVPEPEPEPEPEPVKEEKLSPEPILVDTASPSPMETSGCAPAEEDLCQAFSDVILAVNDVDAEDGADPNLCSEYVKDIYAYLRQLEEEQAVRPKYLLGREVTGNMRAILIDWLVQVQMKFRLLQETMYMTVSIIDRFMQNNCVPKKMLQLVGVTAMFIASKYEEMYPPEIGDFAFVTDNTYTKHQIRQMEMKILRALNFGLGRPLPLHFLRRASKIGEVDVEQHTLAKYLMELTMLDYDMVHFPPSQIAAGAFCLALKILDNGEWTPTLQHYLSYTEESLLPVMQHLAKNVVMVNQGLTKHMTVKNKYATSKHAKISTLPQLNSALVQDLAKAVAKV
T7 sequence (P48729 whole entry): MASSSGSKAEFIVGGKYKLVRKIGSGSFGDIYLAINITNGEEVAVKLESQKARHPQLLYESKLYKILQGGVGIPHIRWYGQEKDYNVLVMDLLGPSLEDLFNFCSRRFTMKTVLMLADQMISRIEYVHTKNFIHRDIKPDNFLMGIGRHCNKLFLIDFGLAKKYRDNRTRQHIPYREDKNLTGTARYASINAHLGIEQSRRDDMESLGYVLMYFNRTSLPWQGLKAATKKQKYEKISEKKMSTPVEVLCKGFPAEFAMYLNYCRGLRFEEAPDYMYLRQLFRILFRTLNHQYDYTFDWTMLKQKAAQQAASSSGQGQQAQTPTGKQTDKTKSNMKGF
T9 sequence (Q13554 whole entry): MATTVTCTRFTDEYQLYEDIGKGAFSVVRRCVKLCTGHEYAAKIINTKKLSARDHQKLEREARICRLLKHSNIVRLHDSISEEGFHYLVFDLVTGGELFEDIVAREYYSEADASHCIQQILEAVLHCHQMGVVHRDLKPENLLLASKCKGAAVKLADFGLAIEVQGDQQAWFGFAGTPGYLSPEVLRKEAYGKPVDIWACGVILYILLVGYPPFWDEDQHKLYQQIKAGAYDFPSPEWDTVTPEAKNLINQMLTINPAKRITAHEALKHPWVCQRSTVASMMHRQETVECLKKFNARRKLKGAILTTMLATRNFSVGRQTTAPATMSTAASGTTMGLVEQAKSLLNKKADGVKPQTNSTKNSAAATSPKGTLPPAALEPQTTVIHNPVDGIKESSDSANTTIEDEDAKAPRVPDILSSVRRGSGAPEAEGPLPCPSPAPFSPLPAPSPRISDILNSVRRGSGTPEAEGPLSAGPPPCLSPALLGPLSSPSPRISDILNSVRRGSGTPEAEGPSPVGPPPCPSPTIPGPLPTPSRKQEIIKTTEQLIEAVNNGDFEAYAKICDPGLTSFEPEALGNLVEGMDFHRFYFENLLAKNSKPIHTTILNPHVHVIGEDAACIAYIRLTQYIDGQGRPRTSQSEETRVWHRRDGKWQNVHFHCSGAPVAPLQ
T3 sequence (Q9P289 whole entry): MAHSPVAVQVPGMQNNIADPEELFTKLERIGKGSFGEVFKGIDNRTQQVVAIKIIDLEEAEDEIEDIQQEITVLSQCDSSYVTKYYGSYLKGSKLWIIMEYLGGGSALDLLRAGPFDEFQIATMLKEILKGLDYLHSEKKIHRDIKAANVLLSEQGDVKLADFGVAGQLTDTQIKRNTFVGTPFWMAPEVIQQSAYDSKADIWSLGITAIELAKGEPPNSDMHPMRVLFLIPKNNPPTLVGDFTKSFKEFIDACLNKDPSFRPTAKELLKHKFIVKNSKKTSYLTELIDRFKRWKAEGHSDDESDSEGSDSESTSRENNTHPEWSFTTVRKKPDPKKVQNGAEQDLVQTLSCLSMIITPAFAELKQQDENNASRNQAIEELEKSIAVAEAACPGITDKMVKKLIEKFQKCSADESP
T1 sequence (P15056 whole entry): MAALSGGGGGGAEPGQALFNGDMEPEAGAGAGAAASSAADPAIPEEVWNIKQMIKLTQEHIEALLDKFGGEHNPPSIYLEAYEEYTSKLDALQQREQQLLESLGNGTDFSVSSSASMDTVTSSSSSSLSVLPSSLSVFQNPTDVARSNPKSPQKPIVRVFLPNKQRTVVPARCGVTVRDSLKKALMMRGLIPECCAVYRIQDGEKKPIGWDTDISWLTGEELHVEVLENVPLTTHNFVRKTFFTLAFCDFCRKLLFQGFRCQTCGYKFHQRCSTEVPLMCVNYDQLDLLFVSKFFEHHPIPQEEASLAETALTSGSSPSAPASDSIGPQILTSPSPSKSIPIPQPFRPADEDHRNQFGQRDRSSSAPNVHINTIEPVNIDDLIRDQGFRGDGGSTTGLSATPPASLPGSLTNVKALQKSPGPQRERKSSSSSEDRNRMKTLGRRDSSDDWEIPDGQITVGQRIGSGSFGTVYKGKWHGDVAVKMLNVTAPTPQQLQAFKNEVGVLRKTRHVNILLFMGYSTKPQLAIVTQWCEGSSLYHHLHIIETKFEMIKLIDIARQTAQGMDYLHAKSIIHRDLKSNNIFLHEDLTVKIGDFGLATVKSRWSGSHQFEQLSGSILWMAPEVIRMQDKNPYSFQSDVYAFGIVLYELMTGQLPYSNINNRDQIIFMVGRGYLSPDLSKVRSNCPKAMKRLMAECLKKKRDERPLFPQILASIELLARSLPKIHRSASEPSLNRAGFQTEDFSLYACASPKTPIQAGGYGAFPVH
T4 sequence (Q14012 whole entry): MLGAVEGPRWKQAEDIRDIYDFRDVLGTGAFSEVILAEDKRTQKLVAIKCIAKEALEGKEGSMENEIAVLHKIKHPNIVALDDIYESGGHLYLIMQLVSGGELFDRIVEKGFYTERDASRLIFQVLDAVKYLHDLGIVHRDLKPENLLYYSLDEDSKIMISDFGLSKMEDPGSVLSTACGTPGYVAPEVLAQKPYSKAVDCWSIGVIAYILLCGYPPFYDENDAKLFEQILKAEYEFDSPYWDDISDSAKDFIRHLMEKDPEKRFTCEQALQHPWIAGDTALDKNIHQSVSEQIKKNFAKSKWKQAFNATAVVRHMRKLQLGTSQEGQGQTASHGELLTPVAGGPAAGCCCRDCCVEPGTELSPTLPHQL

**Q.** Which remaining activity at 10 µM (BRAF; [1]) does the source give for `CC(C)(C)C(=O)N1N=CC[C@H]1c1ccccc1` [GSK′963] here?
**A.** The remaining activity at 10 µM was 89.4%.

**Q.** And the remaining activity at 10 µM (BRAF; [2])?
**A.** Its remaining activity at 10 µM is 89.4%.

**Q.** What about the remaining activity at 10 µM (BRAF; [3]) of the same compound?
**A.** Its remaining activity at 10 µM is 89.4%.

**Q.** And the remaining activity at 10 µM (PLK1; [1])?
**A.** The remaining activity at 10 µM was 103%.

**Q.** What about the remaining activity at 10 µM (PLK1; [2]) of the same compound?
**A.** Its remaining activity at 10 µM is 105%.

**Q.** And the remaining activity at 10 µM (PLK1; [3])?
**A.** Its remaining activity at 10 µM is 101%.

**Q.** What about the remaining activity at 10 µM (MST4; [1]) of the same compound?
**A.** The remaining activity at 10 µM was 104%.

**Q.** What about the remaining activity at 10 µM (MST4; [2]) of the same compound?
**A.** The remaining activity at 10 µM was 103%.

**Q.** What about the remaining activity at 10 µM (MST4; [3]) of the same compound?
**A.** The remaining activity at 10 µM was 105%.

**Q.** What about the remaining activity at 10 µM (CAMK1a; [1]) of the same compound?
**A.** The remaining activity at 10 µM was 96.3%.

**Q.** What about the remaining activity at 10 µM (CAMK1a; [2]) of the same compound?
**A.** Its remaining activity at 10 µM is 99.3%.

**Q.** And the remaining activity at 10 µM (CAMK1a; [3])?
**A.** The remaining activity at 10 µM was 93.3%.

**Q.** And the remaining activity at 10 µM (MEK3; [1])?
**A.** The remaining activity at 10 µM was 108%.

**Q.** And the remaining activity at 10 µM (MEK3; [2])?
**A.** The remaining activity at 10 µM was 103%.

**Q.** And the remaining activity at 10 µM (MEK3; [3])?
**A.** The remaining activity at 10 µM was 113%.

**Q.** And the remaining activity at 10 µM (CDK1/cyclin B; [1])?
**A.** The remaining activity at 10 µM was 88.6%.

**Q.** What about the remaining activity at 10 µM (CDK1/cyclin B; [2]) of the same compound?
**A.** Its remaining activity at 10 µM is 84%.

**Q.** And the remaining activity at 10 µM (CDK1/cyclin B; [3])?
**A.** The remaining activity at 10 µM was 93.2%.

**Q.** And the remaining activity at 10 µM (CK1a1; [1])?
**A.** The remaining activity at 10 µM was 103%.

**Q.** And the remaining activity at 10 µM (CK1a1; [2])?
**A.** The remaining activity at 10 µM was 102%.

**Q.** And the remaining activity at 10 µM (CK1a1; [3])?
**A.** Its remaining activity at 10 µM is 103%.

**Q.** What about the remaining activity at 10 µM (EPHB4; [1]) of the same compound?
**A.** The remaining activity at 10 µM was 101%.

**Q.** What about the remaining activity at 10 µM (EPHB4; [2]) of the same compound?
**A.** The remaining activity at 10 µM was 100%.

**Q.** And the remaining activity at 10 µM (EPHB4; [3])?
**A.** Its remaining activity at 10 µM is 101%.

**Q.** And the remaining activity at 10 µM (CAMK2b; [1])?
**A.** The remaining activity at 10 µM was 95.1%.

**Q.** What about the remaining activity at 10 µM (CAMK2b; [2]) of the same compound?
**A.** The remaining activity at 10 µM was 94.1%.

**Q.** What about the remaining activity at 10 µM (CAMK2b; [3]) of the same compound?
**A.** Its remaining activity at 10 µM is 96.1%.

**Q.** And the remaining activity at 10 µM (ARAF; [1])?
**A.** The remaining activity at 10 µM was 93.7%.

**Q.** And the remaining activity at 10 µM (ARAF; [2])?
**A.** Its remaining activity at 10 µM is 94.6%.

**Q.** What about the remaining activity at 10 µM (ARAF; [3]) of the same compound?
**A.** Its remaining activity at 10 µM is 92.9%.
